Assays:
Type in all cases: in vivo, human
senile plaques = test: Change in 5 senile plaques on the back of both hands of patient A under orally administered cabergoline
From the text: To find out the pharmaceutical effect of orally administered cabergoline, a change in the symptom of 5 senile plaques occurring on the back of both hands of patient A was investigated for 10 weeks from Jun. 20, 2013 (Thursday) to Aug. 29, 2013 (Thursday).
Patient A was a person with prolactin-producing pituitary adenoma. Before the clinical test of the treatment, patient A had dark brown circle-like senile plaques, specifically, 3 plaques on the back of the left hand (long diameter 11 mm×short diameter 8 mm, long diameter 8 mm×short diameter 6 mm, and long diameter 7 mm×short diameter 5 mm) and 2 plaques on the back of the right hand (long diameter 10 mm×short diameter 8 mm and long diameter 7 mm×short diameter 6 mm).
According to the doctor's instruction, oral administration was performed twice/week, on Monday and Thursday, for the first 4 weeks (from June 20 to July 15), and the dose was 2 mg/4 weeks.
A total of 1 mg of cabergoline were orally administered by this 4-week administration (administration dates are as follows: July 18, July 25, August 1, and August 8).
The cabergoline administration on week 9 and week 10 was performed on August 15 (Thursday) and August 22 (Thursday).

prolactin level in blood = test: Prolactin level in blood of patient A (prolactin-producing pituitary adenoma) during cabergoline treatment
Experimental: In view of the dramatic improvement of prolactin level, the doctor ordered that the cabergoline administration for the next 1 month be changed to one tablet/week, and oral administration be carried out before sleeping on Thursday. […] As such, the cabergoline administration was maintained at one tablet/week, and the administration period was extended up to 2 months.
Thus, the treatment regimen using cabergoline from August 15 to October 3 was also determined to be oral administration of one tablet (0.25 mg) on Thursday.

moles [1] = test: Effect of oral cabergoline on 10 moles of the femoral region of the right leg; conditions: Jan. 20, 2014, after 7 months oral cabergoline; for Color and shape of mole 1, upper part of side area / Color and shape of mole 2, lower part of side area: Jun. 20, 2013: Black rectangle
Experimental: 10 moles were present within an area having a width of 10 cm and a length of 8 cm extending from the outer side to the front side of the femoral region of the right leg. After 7 months, the state of those 10 moles was observed and the effect of oral administration of cabergoline was investigated.
For the first 4 weeks from […], one tablet (0.25 mg) of carbegoline was administered on Monday and Thursday. The total dose over the 4 weeks was 2 mg. For the following 26 weeks, one tablet of cabergoline was administered on every Thursday. The total dose of cabergoline over the 7-month treatment period was calculated to be 8.5 mg.

moles [2] = test: Effect of oral administration on 4 moles on left ankle and 4 small moles around them; conditions: for Color and shape of mole No. 4, left ankle: Jun. 20, 2013: brown circular
From the text: On the part slightly above the left ankle, 4 black moles were observed. From a direction of the little toe of the left foot, there were 3 black circular moles having a similar diameter ranging from about 3.7 mm to about 4 mm, present almost in one line with an interval of 2.4 cm and 2.6 cm. […]
At a position 6 mm above the second mole, there was a red oval mole of 1 mm×1.7 mm. […]

head hair / bald area = test: Hair growth on the head of patient A, photographs before and after oral cabergoline
From the text: According to the photograph (1) of patient A (FIG. 1) taken at a restaurant during travel in Shonai region of Yamagata Prefecture on Sep. 16, 2010, the head of patient A from the upper forehead to the crown was quite bald. Only a small amount of hair was left right above the forehead. Patient A was […] at the time of taking the photo. Since the cabergoline administration was started on Jun. 20, 2013, patient A was […] at that time, which was 2 years and 9 months after taking the photograph (1), and thus, aging further progressed so that the hair became thinner and the hair loss progressed.
The image of the occipital region of patient A taken from the back side on Sep. 16, 2010, is shown in the photograph (2) (FIG. 2).
In the period from Jun. 20, 2013 (Thursday) to Jul. 15, 2013 (Monday), one tablet of 0.25 mg cabergoline was orally administered twice per week, on Monday and Thursday, and thus a total of 2 mg of cabergoline was administered over one month. From July 18, the administration of cabergoline was changed from two tablets per week to one tablet per week. The total dose of cabergoline administered from Jul. 18, 2013 to Jan. 20, 2014 was about 6 mg, and thus, the total amount of cabergoline administered after the start of administration was calculated to be 8 mg.
Images of the frontal region and the occipital region of patient A taken on Feb. 27, 2014 are shown as photograph (3) (FIG. 3) and photograph (4) (FIG. 4), respectively.

[3] = listed as novel skin treatment agent
[4] = Jun. 20, 2013: Dark brown circle
[5] = Jan. 17, 2014 (after 210 days), listed as novel skin treatment agent
[6] = Jan. 17, 2014 (after 210 days), size 1.8 × 2.2 wrapped over two grid lines, Jun. 20, 2013: 3.9 mm
[7] = Mar. 20, 2014 (after 272 days), vague border, Jun. 20, 2013: black circular
[8] = Feb. 27, 2014 vs Sep. 16, 2010, oral cabergoline since Jun. 20, 2013

C=CCN1C[C@H](C(=O)N(CCCN(C)C)C(=O)NCC)C[C@@H]2c3cccc4[nH]cc(c34)C[C@H]21 [cabergoline]
color of the senile plaques (senile plaques; August, 6 weeks after starting cabergoline administration): started to become lighter
state of the senile plaques (senile plaques; end of August, after 10 weeks oral cabergoline): clearly disappeared
state of the 5 senile plaques (senile plaques; first 4 weeks (June 20 to July 15), oral twice/week, 2 mg/4 weeks, direct observation): no change was recognized
skin of the back of both hands (senile plaques; from end of August, previously flecked with pigmented macules and dry): gradually started to become white and have lighter skin texture
size of the senile plaques (senile plaques; from mid-August, one tablet (0.25 mg)/week oral): started to show a tendency to shrink in size
prolactin level in blood (prolactin level in blood; August 14, after further 4 weeks at one tablet (0.25 mg)/week oral): 47.8 ng/mL
prolactin level in blood (prolactin level in blood; July 17, after 4 weeks at 2 mg/4 weeks oral, level on April 18 was 20888 ng/mL): 101.8 ng/mL
prolactin level in blood (earlier level as restated) (prolactin level in blood; level before the decrease seen on August 14): 102 ng/mL
Appearance of all 4 moles on the front area (moles [1]): turned into faint flesh colored, pigmented macules
Diameter of the 2 light brown circular moles sandwiching the red moles of the middle area (moles [1]): 1 mm
Diameter of the remaining 2 small front-area moles (moles [1]): 1 mm
Size change of the front-area moles of 4.5 mm and 3 mm (moles [1]): hardly shrunk
Appearance of mole 7, upper part of front area (moles [1]; Jun. 20, 2013: 3.3 × 3.1 Brown circle-like, cell continues: flesh color): Turned into weak pigmented macules having
Size change of mole 7, upper part of front area (moles [1]; Jun. 20, 2013: 3.3 × 3.1 mm): flesh color with almost no change in size
Color and shape of mole 1, upper part of side area (moles [1]): dark brown rectangular mole
Color and shape of mole 2, lower part of side area (moles [1]): faded light brown oval mole with an unclear border
Color and shape of mole 1, upper part of side area (moles [1]; [3]): Dark brown rectangle
Color and shape of mole 2, lower part of side area (moles [1]; [3]): Faint, light brown rectangle
Color and shape of mole 4, central left part of middle area (moles [1]; Jun. 20, 2013: Brown rectangle): Light red circle-like
Color and shape of mole 3, upper part of middle area (moles [1]; [4]): Faint, light brown circle
Color and shape of mole 6, lower part of middle area (moles [1]; [4]): Dark brown circle
Color and shape of mole 5, central right part of middle area (moles [1]; Jun. 20, 2013: Dark brown oval): Red circle-like
Color and shape of mole No. 1, left ankle (moles [2]; Dec. 4, 2013 (after 166 days), Jun. 20, 2013: black circular): a red circular mole
Diameter of mole No. 1, left ankle (moles [2]; Dec. 4, 2013 (after 166 days), Jun. 20, 2013: black circular, diameter 3.7 mm): 1.2 mm. The color
Color and shape of mole No. 4, left ankle (moles [2]; Dec. 4, 2013 (after 166 days)): yellow-brown circular mole
Diameter of mole No. 4, left ankle (moles [2]; Dec. 4, 2013 (after 166 days), Jun. 20, 2013: brown circular mole of 2.0 × 1.8 mm): with a diameter of 1.0 mm,
Diameter of the 2 red moles among the small moles above mole No. 3 (moles [2]; Dec. 4, 2013 (after 166 days), Jun. 20, 2013: diameter 1.5 mm): diameter of 0.5 mm.
Color and shape of mole No. 3, left ankle (moles [2]; Dec. 4, 2013 (after 166 days), cell continues: brown rectangular mole, vague border, Jun. 20, 2013: black circular): The mole shrunk to a blackish
Color of mole No. 2, left ankle (moles [2]; Dec. 4, 2013 (after 166 days), oval, vague border, Jun. 20, 2013: black circular): faded to light brown.
State of the 3 small moles above mole No. 3 (moles [2]; Jan. 17, 2014 (after 210 days)): completely disappeared
State of the small mole above mole No. 2 (moles [2]; Jan. 17, 2014 (after 210 days)): completely disappeared
Diameter of mole No. 1, left ankle (moles [2]; Jan. 17, 2014 (after 210 days), Jun. 20, 2013: 3.7 mm): 1.0 mm.
Color and shape of mole No. 1, left ankle (moles [2]; Jan. 17, 2014 (after 210 days), Jun. 20, 2013: black circular): Red circular mole
Color and shape of mole No. 4, left ankle (moles [2]; Jan. 17, 2014 (after 210 days)): Light brown line-shaped
State of the 3 small moles above mole No. 3 (moles [2]; [5]): The upper 3 moles disappeared.
State of the small mole above mole No. 2 (moles [2]; [5]): The upper mole disappeared.
Length of mole No. 2, left ankle (moles [2]; [6]): 2.2 mm with a vague border.
Width of mole No. 2, left ankle (moles [2]; [6]): 1.8 mm
Color and shape of mole No. 2, left ankle (moles [2]; Jan. 17, 2014 (after 210 days), vague border, Jun. 20, 2013: black circular): Light brown oval mole
Diameter of mole No. 1, left ankle (moles [2]; Mar. 20, 2014 (after 272 days), Jun. 20, 2013: 3.7 mm): 1 mm
Diameter of mole No. 1, left ankle (moles [2]; Mar. 20, 2014 (after 272 days), Jun. 20, 2013: 3.7 mm, listed as novel skin treatment agent): diameter of 1.0 mm.
Diameter of mole No. 2, left ankle (moles [2]; Mar. 20, 2014 (after 272 days), Jun. 20, 2013: 3.9 mm): 2 mm
Diameter of mole No. 2, left ankle (moles [2]; Mar. 20, 2014 (after 272 days), Jun. 20, 2013: 3.9 mm, listed as novel skin treatment agent): diameter of 2.0 mm with a vague
Color and shape of mole No. 1, left ankle (moles [2]; Mar. 20, 2014 (after 272 days), Jun. 20, 2013: black circular): red circular shape
Color and shape of mole No. 1, left ankle (moles [2]; Mar. 20, 2014 (after 272 days), Jun. 20, 2013: black circular, listed as novel skin treatment agent): Light red circular
Color and shape of mole No. 4, left ankle (moles [2]; Mar. 20, 2014 (after 272 days), cell continues: shaped mole): only a trace of a faint line shape was observed
Color and shape of mole No. 4, left ankle (moles [2]; Mar. 20, 2014 (after 272 days), cell continues: shaped mole, listed as novel skin treatment agent): Very light brown line-
Color and shape of mole No. 2, left ankle (moles [2]; [7]): pale light brown circular mole
Color and shape of mole No. 3, left ankle (moles [2]; [7]): blackish brown color and an almost rectangular shape
Color and shape of mole No. 3, left ankle (moles [2]; Mar. 20, 2014 (after 272 days), vague border, Jun. 20, 2013: black circular, listed as novel skin treatment agent): Dark brown rectangular mole of
Bald area, frontal region of the head (photograph (3)) (head hair / bald area; [8]): clearly reduced
Bald area, region from the crown to the occipital region (photograph (4) vs (2)) (head hair / bald area; [8]): the bald area was reduced
Hairs in the region from the crown to the occipital region (head hair / bald area; [8]): hairs were increased
Hair in the frontal region of the head (photograph (3)) (head hair / bald area; Feb. 27, 2014 vs Sep. 16, 2010, oral cabergoline since Jun. 20, 2013, about 8 mg in total by Jan. 20, 2014): short black hairs were found in the previously bald region
